Data reported in ChEMBL document CHEMBL4732228, “The total synthesis of berberine and selected analogues, and their evaluation as amyloid beta aggregation inhibitors” (Eur J Med Chem, 2021).
In brackets after ≈: the same amount, converted by molar mass. Activity calls are given as the source filed them. No cut-off for these calls is given here.

Assays:
[1] = Cytotoxicity against rat PC12 cells assessed as reduction in cell viability incubated for 24 hrs by WST-8 assay; format: cell-based, PC-12
[2] = Water solubility of the compound at 1 mg incubated for 12 hrs under shaking condition by UV-HPLC analysis; format: physicochemical
[3] = target: Amyloid-beta precursor protein (Homo sapiens) (UniProt P05067); assay: Inhibition of amyloid beta (1 to 42 ) (unknown origin) aggregation at 10 uM after 20 hrs by thioflavin-T fluorescence method relative to control
[4] = target: Amyloid-beta precursor protein (Homo sapiens) (UniProt P05067); assay: Inhibition of amyloid beta (1 to 42 ) (unknown origin) aggregation assessed as decrease in size of amyloid beta fibrils after 20 hrs by TEM analysis (reference value: 1 micrometer)
[5] = target: Amyloid-beta precursor protein (Homo sapiens) (UniProt P05067); assay: Inhibition of amyloid beta (1 to 42 ) (unknown origin) aggregation assessed as decrease in diameter of aggregate after 20 hrs by dynamic light scattering analysis (reference value: 4.6 micrometer)
[6] = target: Amyloid-beta precursor protein (Homo sapiens) (UniProt P05067); assay: Inhibition of amyloid beta (1 to 42 ) (unknown origin) aggregation assessed as appearance of nano-rod like amyloid beta fragments after 20 hrs by CD spectroscopic method
[7] = Ratio of compound solubility to curcumin solubility in water after 12 hrs by UV-HPLC analysis; format: physicochemical; conditions: buffer

Amyloid-beta precursor protein (Homo sapiens), sequence (P05067 whole entry, the tested form may be a part): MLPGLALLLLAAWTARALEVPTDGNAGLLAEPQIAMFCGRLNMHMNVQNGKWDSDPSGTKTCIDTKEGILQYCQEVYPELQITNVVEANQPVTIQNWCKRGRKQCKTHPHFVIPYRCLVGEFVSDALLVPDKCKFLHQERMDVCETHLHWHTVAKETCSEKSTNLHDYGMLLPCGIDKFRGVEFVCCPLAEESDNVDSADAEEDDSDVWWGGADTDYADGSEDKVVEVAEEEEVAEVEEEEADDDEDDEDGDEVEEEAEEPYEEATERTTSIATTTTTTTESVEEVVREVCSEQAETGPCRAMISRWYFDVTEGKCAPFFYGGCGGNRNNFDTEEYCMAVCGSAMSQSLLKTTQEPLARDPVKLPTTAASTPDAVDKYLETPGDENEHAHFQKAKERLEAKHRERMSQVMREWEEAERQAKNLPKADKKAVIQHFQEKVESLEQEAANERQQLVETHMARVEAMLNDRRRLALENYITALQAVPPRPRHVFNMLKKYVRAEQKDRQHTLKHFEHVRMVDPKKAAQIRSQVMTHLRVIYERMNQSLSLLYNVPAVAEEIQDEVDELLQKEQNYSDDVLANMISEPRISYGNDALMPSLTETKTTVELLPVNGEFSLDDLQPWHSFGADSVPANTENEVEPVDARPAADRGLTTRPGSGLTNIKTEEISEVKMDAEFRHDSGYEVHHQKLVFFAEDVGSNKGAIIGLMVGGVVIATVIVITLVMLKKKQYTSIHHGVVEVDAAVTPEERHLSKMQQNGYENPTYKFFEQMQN

Row | solubility thermodynamic at 12 h [2] | inhibition [3] | Ratio [7] | Compound | CC50 at 24 h [1] | Activity [4] | Activity [5] | inhibition [6]
1 |  |  |  | COc1ccc2cc3n(c(=O)c2c1OC)CCc1cc2c(cc1-3)OCO2 [OXYBERBERINE] | 137 µM |  |  | 
2 | 5.2 µM (≈ 1.07 µg/mL) |  |  | COc1ccc2cc[nH]c(=O)c2c1OC | 129 µM |  |  | 
3 | 26 µM (≈ 7.73 µg/mL) |  |  | CCOC(CNC(=O)c1cccc(OC)c1OC)OCC | > 150 µM |  |  | 
4 | 2450 µM | 72% |  | Oc1cc2c(cc1O)-c1cc3ccc(O)c(O)c3c[n+]1CC2.[Cl-] | 9.8 µM | 50 nm |  | Active
5 | 15 µM (≈ 6.48 µg/mL) |  |  | COc1ccc2ccn(CCc3cc4c(cc3Br)OCO4)c(=O)c2c1OC | 132 µM |  |  | 
6 | 1500 µM | 39% |  | COc1c(O)ccc2cc3[n+](cc12)CCc1cc(O)c(O)cc1-3.[Cl-] | 39 µM |  |  | 
7 | 1780 µM | 32% | 9000 | COc1ccc2cc3[n+](cc2c1OC)CCc1cc2c(cc1-3)OCO2.[Cl-] [BERBERINE CHLORIDE] | > 150 µM |  |  | 
8 | 2370 µM (≈ 743 µg/mL) | 61% |  | COc1c(O)ccc2c1CN1CCc3cc(O)c(O)cc3C1C2 (configuration not stated) | 91 µM |  |  | 
9 | 2340 µM (≈ 735 µg/mL) | 100% |  | O=C1C=C(c2ccc(O)c(O)c2)OC(c2cc(O)ccc2O)C1 (configuration not stated) | 114 µM |  |  | 
10 | 2750 µM | 27% |  | COc1ccc2cc3[n+](cc2c1OC)CCc1cc(O)c(O)cc1-3.[Cl-] | > 150 µM |  |  | 
11 |  |  |  | COc1cc(/C=C/C(=O)CC(=O)/C=C/c2ccc(O)c(OC)c2)ccc1O [CURCUMIN] | 44 µM |  |  | 

Row | Compound | solubility thermodynamic at 12 h [2] | inhibition [3] | Ratio [7] | CC50 at 24 h [1] | Activity [4] | Activity [5] | inhibition [6]
12 | Oc1cc2c(cc1O)C1Cc3ccc(O)c(O)c3CN1CC2 (configuration not stated) | > 3340 µM | 78% |  | 114 µM | 50 nm | 1.3 nm | Active
13 | COc1ccc2c(c1OC)CN1CCc3cc4c(cc3C1C2)OCO4 (configuration not stated) [TETRAHYDROBERBERINE] | 7 µM (≈ 2.38 µg/mL) |  |  | > 150 µM |  |  | 
